According to patent publication US4066753A, “Neomycin and paromomycin derivatives” (Canadian Patents and Development Limited, priority 1976, dated 1978):
Values after ≈ are worked out from the molar mass of the structure shown. Where two headings read alike, the source gives them in different places.

Key:
P. aeruginosa 87442 = assay: IN VITRO antibacterial activity against resistant organisms, P. aeruginosa 87442; assay type: cell-based; details: resistant organism P. aeruginosa 87442, nutrient broth, 24 hours at 37° C
Protocol: (§1) In the Tables above MIC stands for minimum inhibitory concentration and
(§2) the results were obtained by providing halving dilutions of the test
(§3) compound in nutrient broth (concentrations usually range from 1/10,000 to
(§4) 1/320,000). These solutions are inoculated with the test organism,
(§5) incubated for 24 hours at 37° C and then examined for the presence
(§6) of growth. A test compound found to have a minimum inhibitory
(§7) concentration (MIC) of 1/160,000 is generally considered as a lead.

E. coli B1002 = assay: IN VITRO antibacterial activity against resistant organisms, E. coli B1002; assay type: cell-based; details: resistant organism E. coli B1002, nutrient broth, 24 hours at 37° C
Protocol: as §1, §2, §3, §4, §5, §6, §7

P. aeruginosa 377 = assay: IN VITRO antibacterial activity against resistant organisms, P. aeruginosa 377; assay type: cell-based; details: resistant organism P. aeruginosa 377, nutrient broth, 24 hours at 37° C
Protocol: as §1, §2, §3, §4, §5, §6, §7

E. coli B989 = assay: IN VITRO antibacterial activity against resistant organisms, E. coli B989; assay type: cell-based; details: resistant organism E. coli B989, nutrient broth, 24 hours at 37° C
Protocol: as §1, §2, §3, §4, §5, §6, §7

S. marcesceus = assay: IN VITRO antibacterial activity, S. marcesceus; assay type: cell-based; details: 24 h
Protocol: as §1, §2, §3, §4, §5, §6, §7

S. pyogenes S = assay: IN VITRO antibacterial activity, S. pyogenes S; assay type: cell-based; details: Streptococcus pyogenes, 24 h
Protocol: as §1, §2, §3, §4, §5, §6, §7

K. pneumoniae = assay: IN VITRO antibacterial activity, K. pneumoniae; assay type: cell-based; details: Klebsiella pneumoniae, 24 h
Protocol: as §1, §2, §3, §4, §5, §6, §7

S. fecalis = assay: IN VITRO antibacterial activity, S. fecalis; assay type: cell-based; details: 24 h
Protocol: as §1, §2, §3, §4, §5, §6, §7

A. aerogenes = assay: IN VITRO antibacterial activity, A. aerogenes; assay type: cell-based; details: Klebsiella aerogenes, 24 h
Protocol: as §1, §2, §3, §4, §5, §6, §7

P. mirabilis = assay: IN VITRO antibacterial activity, P. mirabilis; assay type: cell-based; details: Proteus mirabilis, 24 h
Protocol: as §1, §2, §3, §4, §5, §6, §7

S. pullorm = assay: IN VITRO antibacterial activity, S. pullorm; assay type: cell-based; details: 24 h
Protocol: as §1, §2, §3, §4, §5, §6, §7

E. coli 198 = assay: IN VITRO antibacterial activity, E. coli 198; assay type: cell-based; details: Escherichia coli, 198, 24 h
Protocol: as §1, §2, §3, §4, §5, §6, §7

E. coli B996 = assay: IN VITRO antibacterial activity, E. coli B996 (resistant to Kanamycin and paromomycin); assay type: cell-based; details: Escherichia coli, nutrient broth, 24 hours at 37° C
Protocol: as §1, §2, §3, §4, §5, §6, §7

S. pyogenes R = assay: IN VITRO antibacterial activity, S. pyogenes R; assay type: cell-based; details: Streptococcus pyogenes, 24 h
Protocol: as §1, §2, §3, §4, §5, §6, §7

P. aeruginosa = assay: IN VITRO antibacterial activity, P. aeruginosa; assay type: cell-based; details: Pseudomonas aeruginosa, 24 h
Protocol: as §1, §2, §3, §4, §5, §6, §7

S. pyogenes S B352 = assay: IN VITRO antibacterial activity, S. pyogenes S B352; assay type: cell-based; details: Streptococcus pyogenes, SB352; S. pyogenes S B352; nutrient broth, 24 hours at 37° C; read-out: MIC
Protocol: as §1, §2, §3, §4, §5, §6, §7

in vivo = details: mouse, iv, in mice (i.v), acute toxicity
S. pullorum 358 = assay: IN VITRO antibacterial activity, S. pullorum 358; assay type: cell-based; details: Salmonella enterica; S. pullorum 358; nutrient broth, 24 hours at 37° C; read-out: MIC
Protocol: as §1, §2, §3, §4, §5, §6, §7

[1] = test system: Kl. pneumoniae 855 (ATCC 10081); assay: IN VITRO antibacterial activity, Kl. pneumoniae 855 (ATCC 10081); assay type: cell-based; details: Klebsiella pneumoniae, ATCC10081, nutrient broth, 24 hours at 37° C
Protocol: as §1, §2, §3, §4, §5, §6, §7

[2] = test system: S. marcesceus 854 (ATCC → 103); assay: IN VITRO antibacterial activity, S. marcesceus 854 (ATCC → 103); assay type: cell-based; details: S. marcesceus 854 (ATCC → 103); nutrient broth, 24 hours at 37° C; read-out: MIC
Protocol: as §1, §2, §3, §4, §5, §6, §7

Pr. mirabilis 360 = assay: IN VITRO antibacterial activity, Pr. mirabilis 360; assay type: cell-based; details: Proteus mirabilis; Pr. mirabilis 360; nutrient broth, 24 hours at 37° C; read-out: MIC
Protocol: as §1, §2, §3, §4, §5, §6, §7

P. aeruginosa 359 = assay: IN VITRO antibacterial activity, P. aeruginosa 359; assay type: cell-based; details: Pseudomonas aeruginosa; P. aeruginosa 359; nutrient broth, 24 hours at 37° C; read-out: MIC
Protocol: as §1, §2, §3, §4, §5, §6, §7

E. Coli 198 (ATCC 1/229) = assay: IN VITRO antibacterial activity, E. Coli 198 (ATCC 1/229); assay type: cell-based; details: Escherichia coli, ATCC1; E. Coli 198 (ATCC 1/229); nutrient broth, 24 hours at 37° C; read-out: MIC
Protocol: as §1, §2, §3, §4, §5, §6, §7

[3] = test system: strains of E. Coli resistant to neomycin and paromomycin; assay: Antibacterial activity against resistant E. Coli; assay type: cell-based
Protocol: as §1, §2, §3, §4, §5, §6, §7

S. pyogenes R 353 = assay: IN VITRO antibacterial activity, S. pyogenes R 353; assay type: cell-based; details: Streptococcus pyogenes, R353; S. pyogenes R 353; nutrient broth, 24 hours at 37° C; read-out: MIC
Protocol: as §1, §2, §3, §4, §5, §6, §7

S. fecalis 353 = assay: IN VITRO antibacterial activity, S. fecalis 353; assay type: cell-based; details: S. fecalis 353; nutrient broth, 24 hours at 37° C; read-out: MIC
Protocol: as §1, §2, §3, §4, §5, §6, §7

A. aerogenes 357 = assay: IN VITRO antibacterial activity, A. aerogenes 357; assay type: cell-based; details: Klebsiella aerogenes; A. aerogenes 357; nutrient broth, 24 hours at 37° C; read-out: MIC
Protocol: as §1, §2, §3, §4, §5, §6, §7

Pr. vulgaris 316 = assay: IN VITRO antibacterial activity, Pr. vulgaris 316; assay type: cell-based; details: Proteus vulgaris; Pr. vulgaris 316; nutrient broth, 24 hours at 37° C; read-out: MIC
Protocol: as §1, §2, §3, §4, §5, §6, §7

[4] = test system: strains of P. Aeruginosa resistant to neomycin B and paromomycin I; assay: Antibacterial activity against resistant P. Aeruginosa; assay type: cell-based
Protocol: as §1, §2, §3, §4, §5, §6, §7

[5] = Pseudomonas aeruginosa, read-out: MIC
[6] = Escherichia coli, read-out: MIC

Gentamycin
MIC (P. aeruginosa 87442): < 0.2 µg/mL | MIC (E. coli B1002): < 0.2 µg/mL | MIC (P. aeruginosa 377): < 0.2 µg/mL | MIC (E. coli B989): < 0.2 µg/mL

NC[C@@H]1O[C@H](O[C@H]2[C@@H](O)[C@H](O[C@@H]3[C@@H](O)[C@H](N)C[C@H](N)[C@H]3O[C@H]3O[C@H](CO)[C@@H](O)[C@H](O)[C@H]3N)O[C@@H]2CO)[C@H](N)[C@@H](O)[C@@H]1O [Paromomycin]
MIC (S. marcesceus): 0.4 µg/mL (≈ 0.65 µM) | MIC (S. pyogenes S): < 0.2 µg/mL | MIC (K. pneumoniae): > 0.2 µg/mL | MIC (S. fecalis): 1.6 µg/mL (≈ 2.6 µM) | MIC (A. aerogenes): > 0.2 µg/mL | MIC (P. mirabilis): > 0.2 µg/mL | MIC (S. pullorm): > 0.2 µg/mL | MIC (E. coli 198): 0.4 µg/mL (≈ 0.65 µM) | MIC (E. coli B996): > 100 µg/mL | MIC (S. pyogenes R): < 0.2 µg/mL | MIC (P. aeruginosa): 0.8 µg/mL (≈ 1.3 µM)

NC[C@@H]1O[C@H](O[C@H]2[C@@H](O)[C@H](O[C@@H]3[C@@H](O)[C@H](N)C[C@H](N)[C@H]3O[C@H]3O[C@H](CN)[C@@H](O)[C@H](O)[C@H]3N)O[C@@H]2CN)[C@H](N)[C@@H](O)[C@@H]1O [5"-Amino-5"-deoxyneomycin B, 5"-amino-5"-deoxyneomycin B]
MIC (S. pyogenes S B352): < 0.1 µg/mL | LD50 (in vivo): 60 to 80 mg/kg | MIC (S. pullorum 358): 0.4 µg/mL (≈ 0.652 µM) | MIC (P. aeruginosa 87442; [5]): 0.8 µg/mL (≈ 1.3 µM) | MIC [1]: 0.4 µg/mL (≈ 0.652 µM) | MIC [2]: 0.4 µg/mL (≈ 0.652 µM) | MIC (Pr. mirabilis 360): 0.8 µg/mL (≈ 1.3 µM) | MIC (P. aeruginosa 359): 1.6 µg/mL (≈ 2.61 µM) | MIC (E. Coli 198 (ATCC 1/229)): 0.8 µg/mL (≈ 1.3 µM) | antibacterial activity against resistant E. Coli [3]: particularly effective | MIC (S. pyogenes R 353): < 0.1 µg/mL | MIC (E. coli B1002; [6]): 3.2 µg/mL (≈ 5.21 µM) | MIC (S. fecalis 353): 0.8 µg/mL (≈ 1.3 µM) | MIC (P. aeruginosa 377; [5]): 1.6 µg/mL (≈ 2.61 µM) | MIC (A. aerogenes 357): 0.8 µg/mL (≈ 1.3 µM) | MIC (Pr. vulgaris 316): 0.8 µg/mL (≈ 1.3 µM) | antibacterial activity against resistant P. Aeruginosa [4]: particularly effective | MIC (E. coli B989; [6]): 1.6 µg/mL (≈ 2.61 µM)

NC[C@@H]1O[C@H](O[C@H]2[C@@H](O)[C@H](O[C@@H]3[C@@H](O)[C@H](N)C[C@H](N)[C@H]3O[C@H]3O[C@H](CN)[C@@H](O)[C@H](O)[C@H]3N)O[C@@H]2CO)[C@H](N)[C@@H](O)[C@@H]1O [Neomycin]
MIC (P. aeruginosa 87442; [5]): < 0.2 µg/mL | MIC (E. coli B1002; [6]): 50 µg/mL (≈ 81.3 µM) | MIC (P. aeruginosa 377; [5]): 0.4 µg/mL (≈ 0.651 µM) | MIC (E. coli B989; [6]): 1.6 µg/mL (≈ 2.6 µM)
